This is an account of results in PMC8465315, “Molecular Umbrella as a Nanocarrier for Antifungals” (Molecules, 2021).

Structures are written as SMILES. “Also recorded” adds a separate entry of the source.

Details of series [1]: method as in PMID 15593345. The note with it: in vitro; cited from earlier work.
Series [2] relates to C. albicans cell-free extract. The class given is in vitro ADME, Candida albicans. The note with it: conjugate 150 µM, 30 °C, 0, 30, 120 min. Here is the method: (§1) Conjugates 24a–d, containing the TML system, were tested for susceptibility to enzymatic cleavage in the model system with pig liver esterase and in cell-free extract prepared from C. albicans cells. Conjugate 35 containing the o-dithiobenzylcarbamoyl linker was tested in the model system with glutathione and in C. albicans cell-free extract.
C. albicans cells were harvested from the culture in YPD medium in the logarithmic phase of growth and washed with PBS, pH 7.4. Then, cells were suspended in a minimal amount of PBS to an optical density OD660 ≈ 1.5. A sample of 1.5 mL of the cell suspension was put into the Lysing Matrix D, 2 mL tubes containing 1.4 mm ceramic spheres (MP Biomedicals). The tubes were vortexed 5 times for 2 min intervals, with 2 min breaks for cooling in the ice/water bath. Finally, the mixtures were centrifuged (10,000× g, 4 °C, 20 min), and the supernatant was pushed through the syringe filter, 0.22 μm pore size, to remove unbroken cells. The thus-obtained cell-free extract was kept at 4 °C and used no later than 5 h after preparation.
(§2) Analysis of cleavage of the conjugates was performed in two experimental systems: (A) model system, in the presence of pig liver esterase or glutathione, reduced; (B) in C. albicans cell-free extract.
A given conjugate was dissolved in 4 mL of C. albicans cell-free extract to the initial concentration of 150 µM. Mixtures were incubated at 30 °C. Samples of 1 mL were collected at zero time, after 30 min, and after 120 min. The collected samples were immediately de-proteinized by centrifugation (4 °C, 5000× g, 10 min) in Amicon® Ultra-4 Centrifugal Filter Units, 3 kDa cutoff limit. Samples of 50 μL were collected from the filtrates and subjected to HPLC-MS analysis.
(§3) The HPLC-MS system consisted of a liquid chromatograph, a degasser, a binary pomp, an auto-sampler, and a column oven, which was combined with an MS detector with an electrospray source (AJS ESI) and quadrupole analyzer (1260 Infinity II and 6470 Triple Quad LC/MS, Agilent Technologies, Waldbronn, Germany). The ChemStation software was used to control the LC-MS system and for data processing.
Chromatographic separations were performed on an Eclipse XDB-C18 column (150 mm × 4.6 mm, 5 μm). For the separation, a gradient of mobile phase A (H2O + 0.01% HCOOH) and mobile phase B (100% methanol) was used. The gradient profile was set as follows: 0 min—95% effluent A, 8 min—70% effluent A, 11 min—50% effluent A, 12 min—95% effluent A, 17 min—95% effluent A. The flow rate was 1 mL min^−1, the column temperature was 25 °C, and the injection volume was 20 μL.
The electrospray source operated in a negative mode. The data were collected in a MS scanning mode (MS2 SCAN) with the range 150–700 (m/z).

Series [3] concerns Candida spp. As to the kind of experiment: Antifungal in vitro activity, summary statements over the Candida strains tested. The class given is cell-based. How it is done: The antifungal in vitro activity of conjugates 24a–d and 35 was determined by the serial two-fold dilution method, using the 96-well microtiter plates, in two growth media, RPMI-1640 and YNB-AS, against seven yeast species from the Candida genus. The MIC50 and MIC90 values, i.e., concentrations at which cell growth was inhibited in 50% and 90%, respectively, were measured and compared to those of the intact cispentacin. The concentration values presented in Table 1 and Table 2 are expressed in mM units to allow the comparison of the compounds’ effectiveness at the molecular level. For data expressed in μg mL^−1 units, such comparison is not possible, since the molecular masses of conjugates (≈1755–2114 D range) are 14–16-fold higher than that of cispentacin (128.3 D).
Susceptibility testing was performed in two growth media: (a) RPMI-1640 w/o sodium bicarbonate, with L-glutamine + 2% glucose + 3.45% MOPS, pH adjusted to 7.0; (b) YNB-AS—Yeast Nitrogen Base w/o amino acids (contains ammonium sulfate 5 g L^−1) + 2% glucose. The in vitro growth inhibitory activity of antifungals was quantified by determination of MIC50 and MIC90 values by the serial two-fold dilution method, using the 96-well microtiter plates. Serial dilutions of cispentacin and its conjugates were prepared in the 4–0.015 mM range.
Conditions of the RPMI-1640-based assay were the same as outlined in the CLSI recommendations except for the end-point readout that was done by spectrophotometric determination of cell density at 660 nm. Turbidity in individual wells was measured with a microplate reader (Victor^3; Perkin Elmer). The 96-well microtiter plates were also used for the determination of in vitro growth inhibitory activity in YNB-AS medium. Individual wells were inoculated with 5 × 10^3 Candida cells mL^−1 from the overnight culture in YPD medium. The plates were incubated at 37 °C for 24 h, and then, turbidity was measured with a microplate reader at 660 nm, as described above for the RPMI-1640-based assay.
Values of MIC50 and MIC90 were read from the graphs of A660 vs. drug concentration and corresponded to the interpolated values of drug concentration at which A660 was 50% or 10% of that measured for the drug-free control.

Series [4] is described as follows: HPLC-MS analysis of conjugate cleavage, model system with glutathione. The class given is in vitro ADME. The conditions noted are these: reduced, conjugate 150 µM, 30 °C, 0, 30, 120 min. Here is the method:
as §1, §2
Mixtures containing a given conjugate at the initial concentration of 150 µM and pig liver esterase, 5 mg mL^−1 or 10 mM glutathione, reduced, in a total volume of 200 μL were incubated at 30 °C. Samples of 50 μL were collected at zero time, after 30 min, and after 120 min and subjected to HPLC-MS analysis.
as §3
Chromatographic separations were performed on an Eclipse XDB-C18 column (150 mm × 4.6 mm, 5 μm). […]

On to `C=C1C[C@H](N)[C@H](C(=O)O)C1` [BAY 10-8888], for which, in series [1], the “metabolism by liver microsomes” value was “not metabolized”.
As to `C[C@H](CCC(=O)NCCCCN(CCCNC(=O)CC[C@@H](C)[C@H]1CC[C@H]2[C@@H]3[C@H](OS(=O)(=O)O)C[C@@H]4C[C@H](OS(=O)(=O)O)CC[C@]4(C)[C@H]3C[C@H](OS(=O)(=O)O)[C@]12C)C(=O)CCSSc1ccccc1COC(=O)N[C@H]1CCC[C@H]1C(=O)O)[C@H]1CC[C@H]2[C@@H]3[C@H](OS(=O)(=O)O)C[C@@H]4C[C@H](OS(=O)(=O)O)CC[C@]4(C)[C@H]3C[C@H](OS(=O)(=O)O)[C@]12C` [compound 35], the “cleavage / release of cispentacin or its derivative (HPLC-MS)” value in series [2] is recorded as “Neither cispentacin nor the m/z 145.1/145.2 compound was found”. Also, the antifungal activity result in series [3] (RPMI-1640 medium) was “devoid of antifungal activity”; in series [3] (both growth media (RPMI-1640 and YNB-AS)) it was “inactive in both media”. The “cleavage / release of cispentacin (HPLC-MS)” value in series [4] is “found in the chromatogram of post-reaction mixture; also recorded: cleavage was observed”.
